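How tested: cells in 96-well plates exposed to compound for 48 hours at five concentrations. GI50 = concentration required for 50% inhibition of growth. Definition used: TGI = concentration required for complete inhibition of growth.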
Assays:
Test in all cases: NCI anticancer screen, dose series, 48 h
[1] = test system: UO-31 renal
[2] = test system: SK-OV-3 ovarian
[3] = test system: SW-620 colon
[4] = test system: SF-295 CNS
[5] = test system: BT-549 breast
[6] = test system: OVCAR-8 ovarian
[7] = test system: TK-10 renal
[8] = test system: OVCAR-5 ovarian
[9] = test system: RXF 393 renal
[10] = test system: LOX IMVI melanoma
[11] = test system: SF-539 CNS
[12] = test system: CAKI-1 renal
[13] = test system: M14 melanoma
[14] = test system: UACC-257 melanoma
[15] = test system: HL-60(TB) leukemia
[16] = test system: DU-145 prostate
[17] = test system: ACHN renal
[18] = test system: IGROV1 ovarian
[19] = test system: K-562 leukemia
[20] = test system: 786-0 renal
[21] = test system: COLO 205 colon
[22] = test system: NCI/ADR-RES ovarian
[23] = test system: NCI-H226 lung
[24] = test system: HS 578T breast
[25] = test system: SNB-19 CNS
[26] = test system: U251 CNS
[27] = test system: HT29 colon
[28] = test system: UACC-62 melanoma
[29] = test system: MDA-MB-435
[30] = test system: SN12C renal
[31] = test system: OVCAR-3 ovarian
[32] = test system: EKVX NSCLC
[33] = test system: SK-MEL-2 melanoma
[34] = test system: HOP-92 NSCLC
[35] = test system: OVCAR-4 ovarian
[36] = test system: HOP-62 NSCLC
[37] = test system: MOLT-4 leukemia
[38] = test system: HCC-2998 colon
[39] = test system: SNB-75 CNS
[40] = test system: SF-268 CNS
[41] = test system: PC-3 prostate
[42] = test system: HCT-15 colon
[43] = test system: NCI-H522 lung
[44] = test system: A498 renal
[45] = test system: HCT-116 colon
[46] = test system: KM12 colon
[47] = test system: RPMI-8226 leukemia
[48] = test system: MALME-3M melanoma
[49] = test system: A549 NSCLC
[50] = test system: CCRF-CEM leukemia
[51] = test system: MCF7 breast
[52] = test system: T-47D breast
[53] = test system: NCI-H460 lung
[54] = test system: SR leukemia
[55] = test system: SK-MEL-5 melanoma
[56] = test system: SK-MEL-28 melanoma
[57] = test system: MDA-MB-231 breast

Which results are given for `O=C(CSc1nc2sc3c(c2c(=O)n1-c1ccc(Cl)cc1)CCCC3)NNC(=O)Nc1cccc(C(F)(F)F)c1`?
GI50 [1]: 2.84 µM; TGI [1]: 12.6 µM; GI50 [2]: 2.13 µM; TGI [2]: 6.06 µM; GI50 [3]: 3.49 µM; TGI [3]: 15 µM; GI50 [4]: 2.28 µM; TGI [4]: 6.16 µM; GI50 [5]: 2.02 µM; TGI [5]: 5.9 µM; GI50 [6]: 2.85 µM; TGI [6]: 9.3 µM; GI50 [7]: 3.43 µM; TGI [7]: 9.9 µM; GI50 [8]: 4.21 µM; TGI [8]: 31 µM; GI50 [9]: 2.31 µM; TGI [9]: 6.48 µM; GI50 [10]: 1.68 µM; TGI [10]: 3.33 µM; GI50 [11]: 3.46 µM; TGI [11]: 11.9 µM; GI50 [12]: 2.31 µM; TGI [12]: 7.14 µM; GI50 [13]: 3.2 µM; TGI [13]: 11.3 µM; GI50 [14]: 2.36 µM; TGI [14]: 6.96 µM; GI50 [15]: 2.39 µM; TGI [15]: 6.57 µM; GI50 [16]: 4.12 µM; TGI [16]: > 100 µM; GI50 [17]: 3.67 µM; TGI [17]: 14.9 µM; GI50 [18]: 5.33 µM; TGI [18]: 25 µM; GI50 [19]: 2.64 µM; TGI [19]: > 100 µM; GI50 [20]: 2.7 µM; TGI [20]: 9.79 µM; GI50 [21]: 1.92 µM; TGI [21]: 3.52 µM; GI50 [22]: 3.12 µM; TGI [22]: 14 µM; GI50 [23]: 2.78 µM; TGI [23]: 8.31 µM; GI50 [24]: 3.1 µM; TGI [24]: 21.6 µM; GI50 [25]: 3.97 µM; TGI [25]: 77.3 µM; GI50 [26]: 2 µM; TGI [26]: 4.39 µM; GI50 [27]: 2.33 µM; TGI [27]: 5.85 µM; GI50 [28]: 2.38 µM; TGI [28]: 7.4 µM; GI50 [29]: 2.89 µM; TGI [29]: 8.95 µM; GI50 [30]: 2.83 µM; TGI [30]: 8.44 µM; GI50 [31]: 3.15 µM; TGI [31]: 11.5 µM; GI50 [32]: 2.45 µM; TGI [32]: 8.32 µM; GI50 [33]: 2.21 µM; TGI [33]: 5.75 µM; GI50 [34]: 1.66 µM; TGI [34]: 4.2 µM; GI50 [35]: 2.44 µM; TGI [35]: 6.78 µM; GI50 [36]: 3.3 µM; TGI [36]: 13.5 µM; GI50 [37]: 2.9 µM; TGI [37]: > 100 µM; GI50 [38]: 2.99 µM; TGI [38]: 11.9 µM; GI50 [39]: 3.42 µM; TGI [39]: 18.9 µM; GI50 [40]: 5.82 µM; TGI [40]: 48.6 µM; GI50 [41]: 2.5 µM; GI50 [42]: 3.05 µM; TGI [42]: 11.5 µM; GI50 [43]: 1.81 µM; TGI [43]: 4.51 µM; GI50 [44]: 1.96 µM; TGI [44]: 4.85 µM; GI50 [45]: 1.98 µM; TGI [45]: 4.01 µM; GI50 [46]: 3.75 µM; TGI [46]: 23.5 µM; GI50 [47]: 2.87 µM; TGI [47]: > 100 µM; GI50 [48]: 2.06 µM; TGI [48]: 5.23 µM; GI50 [49]: 2.97 µM; TGI [49]: 12.3 µM; GI50 [50]: 3.53 µM; TGI [50]: > 100 µM; GI50 [51]: 2.4 µM; TGI [51]: 10 µM; GI50 [52]: 2.29 µM; TGI [52]: 7.14 µM; GI50 [53]: 3.12 µM; TGI [53]: 10.5 µM; GI50 [54]: 2.74 µM; TGI [54]: > 100 µM; GI50 [55]: 2.88 µM; TGI [55]: 8.81 µM; GI50 [56]: 3.69 µM; TGI [56]: 14 µM; GI50 [57]: 2.76 µM; TGI [57]: 8.65 µM

— PubChem BioAssay (NCI)
